These are literature values, as cited in paper PMC5333395, “Assessing histone demethylase inhibitors in cells: lessons learned” (Epigenetics & Chromatin, 2017).

As usually defined, the IC50 is the concentration at which inhibition is half-maximal.

Structures are written as SMILES.

Parameters in all cases: method as in PMID 26741168
Data set [1] addresses T1, KDM2A (Homo sapiens, UniProt Q9Y2K7).
T1 sequence (Q9Y2K7 1-1162): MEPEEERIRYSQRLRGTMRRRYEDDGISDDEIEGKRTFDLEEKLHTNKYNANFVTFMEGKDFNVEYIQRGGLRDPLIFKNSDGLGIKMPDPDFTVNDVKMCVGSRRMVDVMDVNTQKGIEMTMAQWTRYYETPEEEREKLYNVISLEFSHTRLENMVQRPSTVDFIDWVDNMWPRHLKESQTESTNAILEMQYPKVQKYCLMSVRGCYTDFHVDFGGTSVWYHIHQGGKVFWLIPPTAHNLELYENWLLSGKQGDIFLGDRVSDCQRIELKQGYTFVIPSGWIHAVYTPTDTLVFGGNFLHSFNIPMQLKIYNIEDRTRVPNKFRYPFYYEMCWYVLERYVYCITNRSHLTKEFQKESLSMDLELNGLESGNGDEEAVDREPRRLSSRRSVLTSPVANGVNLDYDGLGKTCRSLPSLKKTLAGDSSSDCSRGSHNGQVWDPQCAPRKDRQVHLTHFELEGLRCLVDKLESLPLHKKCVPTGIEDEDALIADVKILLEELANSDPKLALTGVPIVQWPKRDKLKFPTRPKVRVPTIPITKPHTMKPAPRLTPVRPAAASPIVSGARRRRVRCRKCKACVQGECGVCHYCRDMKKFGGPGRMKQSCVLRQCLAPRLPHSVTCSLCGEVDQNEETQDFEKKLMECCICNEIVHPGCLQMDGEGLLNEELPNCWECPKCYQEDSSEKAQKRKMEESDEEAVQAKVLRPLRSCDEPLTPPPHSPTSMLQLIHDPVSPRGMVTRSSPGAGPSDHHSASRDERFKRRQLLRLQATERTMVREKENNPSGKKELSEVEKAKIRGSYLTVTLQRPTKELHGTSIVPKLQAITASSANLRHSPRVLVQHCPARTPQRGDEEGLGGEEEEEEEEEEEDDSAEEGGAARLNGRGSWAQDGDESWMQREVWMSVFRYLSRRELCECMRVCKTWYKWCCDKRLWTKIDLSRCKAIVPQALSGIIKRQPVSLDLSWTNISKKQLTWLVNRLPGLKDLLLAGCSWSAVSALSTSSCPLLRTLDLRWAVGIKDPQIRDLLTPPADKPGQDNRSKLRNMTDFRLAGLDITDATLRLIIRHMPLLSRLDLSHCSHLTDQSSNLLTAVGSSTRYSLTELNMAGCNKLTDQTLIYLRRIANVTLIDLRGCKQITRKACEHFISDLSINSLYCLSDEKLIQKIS
Conditions: RapidFire under low iron condition (0.2 mM); previously reported; read-out: KDM2A IC50, in vitro, RapidFire; cited from earlier work.

Data set [2] concerns the target T2, KDM3A (Homo sapiens, UniProt Q9Y4C1).
T2 sequence (Q9Y4C1 1-1321): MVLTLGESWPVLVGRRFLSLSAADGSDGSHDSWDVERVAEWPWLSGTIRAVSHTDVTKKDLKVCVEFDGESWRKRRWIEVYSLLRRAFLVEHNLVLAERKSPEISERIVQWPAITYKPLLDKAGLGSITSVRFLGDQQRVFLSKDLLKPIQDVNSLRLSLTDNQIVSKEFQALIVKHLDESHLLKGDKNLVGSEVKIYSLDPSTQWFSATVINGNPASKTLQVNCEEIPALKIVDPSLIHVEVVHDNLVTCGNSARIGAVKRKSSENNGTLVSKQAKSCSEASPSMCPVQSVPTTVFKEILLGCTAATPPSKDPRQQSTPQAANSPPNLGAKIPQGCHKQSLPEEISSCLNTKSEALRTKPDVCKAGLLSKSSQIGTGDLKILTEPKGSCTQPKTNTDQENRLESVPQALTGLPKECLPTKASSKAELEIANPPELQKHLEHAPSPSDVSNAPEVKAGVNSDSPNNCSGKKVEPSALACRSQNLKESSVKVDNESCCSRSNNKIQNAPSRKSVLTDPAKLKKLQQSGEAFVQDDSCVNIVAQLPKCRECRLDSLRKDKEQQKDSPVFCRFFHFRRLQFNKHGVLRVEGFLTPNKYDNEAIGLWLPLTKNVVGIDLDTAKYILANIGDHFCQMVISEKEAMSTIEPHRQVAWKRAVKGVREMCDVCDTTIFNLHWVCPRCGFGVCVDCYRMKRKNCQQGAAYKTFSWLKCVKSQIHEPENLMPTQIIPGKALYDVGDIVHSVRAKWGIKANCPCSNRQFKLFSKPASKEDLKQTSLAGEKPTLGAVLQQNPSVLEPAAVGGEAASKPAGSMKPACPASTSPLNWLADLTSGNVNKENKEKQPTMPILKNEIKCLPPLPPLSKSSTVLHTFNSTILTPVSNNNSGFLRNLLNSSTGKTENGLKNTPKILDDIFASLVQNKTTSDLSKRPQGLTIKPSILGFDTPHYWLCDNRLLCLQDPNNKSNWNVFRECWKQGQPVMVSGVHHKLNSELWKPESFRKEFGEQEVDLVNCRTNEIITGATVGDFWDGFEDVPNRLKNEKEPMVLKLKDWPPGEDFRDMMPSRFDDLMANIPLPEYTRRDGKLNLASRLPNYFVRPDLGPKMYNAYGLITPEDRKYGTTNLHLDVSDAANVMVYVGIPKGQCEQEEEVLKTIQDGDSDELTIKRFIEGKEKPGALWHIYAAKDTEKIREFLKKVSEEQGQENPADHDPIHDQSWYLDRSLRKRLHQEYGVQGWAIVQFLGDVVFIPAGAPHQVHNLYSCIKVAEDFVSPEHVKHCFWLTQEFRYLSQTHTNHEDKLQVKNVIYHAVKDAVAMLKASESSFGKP
To be noted: AlphaScreen; in vitro biochemical profiling previously reported; cited from earlier work.

Data set [3] concerns the target KDM5B (Homo sapiens, UniProt Q9UGL1). Conditions: AlphaScreen; in vitro biochemical profiling previously reported; cited from earlier work. A general note: Bead proximity is the source of the signal in Alpha formats.
In data set [4] the target is KDM5C (Homo sapiens, UniProt P41229). Conditions: AlphaScreen; in vitro biochemical profiling previously reported; cited from earlier work.
Chain of KDM5C (P41229 whole entry): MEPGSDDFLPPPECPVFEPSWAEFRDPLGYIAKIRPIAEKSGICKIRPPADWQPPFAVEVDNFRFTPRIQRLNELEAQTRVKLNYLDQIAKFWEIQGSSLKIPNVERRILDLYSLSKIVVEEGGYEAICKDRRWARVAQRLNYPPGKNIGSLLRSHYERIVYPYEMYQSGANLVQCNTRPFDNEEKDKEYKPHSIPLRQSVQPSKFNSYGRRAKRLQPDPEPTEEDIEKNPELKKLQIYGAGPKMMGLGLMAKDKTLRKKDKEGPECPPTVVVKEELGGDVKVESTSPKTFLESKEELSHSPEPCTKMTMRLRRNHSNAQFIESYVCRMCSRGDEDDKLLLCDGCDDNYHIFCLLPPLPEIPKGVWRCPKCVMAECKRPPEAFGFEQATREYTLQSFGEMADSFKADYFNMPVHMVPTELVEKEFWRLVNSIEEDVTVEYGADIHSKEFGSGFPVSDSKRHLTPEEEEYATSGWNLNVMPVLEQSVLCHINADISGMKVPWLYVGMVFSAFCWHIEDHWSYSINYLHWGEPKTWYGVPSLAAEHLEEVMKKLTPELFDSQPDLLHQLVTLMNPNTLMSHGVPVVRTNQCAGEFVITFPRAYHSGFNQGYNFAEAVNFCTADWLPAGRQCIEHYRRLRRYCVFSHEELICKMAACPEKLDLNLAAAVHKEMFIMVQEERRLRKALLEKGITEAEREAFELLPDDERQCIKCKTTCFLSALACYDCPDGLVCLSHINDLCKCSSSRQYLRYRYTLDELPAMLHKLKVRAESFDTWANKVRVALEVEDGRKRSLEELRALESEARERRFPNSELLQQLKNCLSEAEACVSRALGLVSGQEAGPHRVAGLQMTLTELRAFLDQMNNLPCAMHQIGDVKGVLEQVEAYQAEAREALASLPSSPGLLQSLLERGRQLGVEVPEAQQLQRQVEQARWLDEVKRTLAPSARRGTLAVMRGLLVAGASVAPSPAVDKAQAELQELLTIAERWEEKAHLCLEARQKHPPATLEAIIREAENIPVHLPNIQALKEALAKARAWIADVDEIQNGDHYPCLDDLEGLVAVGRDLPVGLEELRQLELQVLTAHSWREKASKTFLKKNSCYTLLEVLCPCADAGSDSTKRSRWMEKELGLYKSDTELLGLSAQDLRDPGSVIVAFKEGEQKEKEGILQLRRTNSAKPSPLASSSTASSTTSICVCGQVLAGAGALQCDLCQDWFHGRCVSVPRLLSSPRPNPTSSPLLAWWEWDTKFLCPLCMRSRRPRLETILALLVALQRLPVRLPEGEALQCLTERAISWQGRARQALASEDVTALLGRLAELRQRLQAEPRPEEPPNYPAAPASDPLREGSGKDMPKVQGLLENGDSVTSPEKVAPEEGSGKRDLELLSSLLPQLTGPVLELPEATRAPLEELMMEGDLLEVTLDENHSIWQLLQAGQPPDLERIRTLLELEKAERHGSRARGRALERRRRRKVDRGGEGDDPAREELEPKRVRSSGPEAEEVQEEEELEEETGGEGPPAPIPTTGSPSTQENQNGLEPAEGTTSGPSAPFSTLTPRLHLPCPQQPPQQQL

Chain of KDM5B (Q9UGL1 whole entry): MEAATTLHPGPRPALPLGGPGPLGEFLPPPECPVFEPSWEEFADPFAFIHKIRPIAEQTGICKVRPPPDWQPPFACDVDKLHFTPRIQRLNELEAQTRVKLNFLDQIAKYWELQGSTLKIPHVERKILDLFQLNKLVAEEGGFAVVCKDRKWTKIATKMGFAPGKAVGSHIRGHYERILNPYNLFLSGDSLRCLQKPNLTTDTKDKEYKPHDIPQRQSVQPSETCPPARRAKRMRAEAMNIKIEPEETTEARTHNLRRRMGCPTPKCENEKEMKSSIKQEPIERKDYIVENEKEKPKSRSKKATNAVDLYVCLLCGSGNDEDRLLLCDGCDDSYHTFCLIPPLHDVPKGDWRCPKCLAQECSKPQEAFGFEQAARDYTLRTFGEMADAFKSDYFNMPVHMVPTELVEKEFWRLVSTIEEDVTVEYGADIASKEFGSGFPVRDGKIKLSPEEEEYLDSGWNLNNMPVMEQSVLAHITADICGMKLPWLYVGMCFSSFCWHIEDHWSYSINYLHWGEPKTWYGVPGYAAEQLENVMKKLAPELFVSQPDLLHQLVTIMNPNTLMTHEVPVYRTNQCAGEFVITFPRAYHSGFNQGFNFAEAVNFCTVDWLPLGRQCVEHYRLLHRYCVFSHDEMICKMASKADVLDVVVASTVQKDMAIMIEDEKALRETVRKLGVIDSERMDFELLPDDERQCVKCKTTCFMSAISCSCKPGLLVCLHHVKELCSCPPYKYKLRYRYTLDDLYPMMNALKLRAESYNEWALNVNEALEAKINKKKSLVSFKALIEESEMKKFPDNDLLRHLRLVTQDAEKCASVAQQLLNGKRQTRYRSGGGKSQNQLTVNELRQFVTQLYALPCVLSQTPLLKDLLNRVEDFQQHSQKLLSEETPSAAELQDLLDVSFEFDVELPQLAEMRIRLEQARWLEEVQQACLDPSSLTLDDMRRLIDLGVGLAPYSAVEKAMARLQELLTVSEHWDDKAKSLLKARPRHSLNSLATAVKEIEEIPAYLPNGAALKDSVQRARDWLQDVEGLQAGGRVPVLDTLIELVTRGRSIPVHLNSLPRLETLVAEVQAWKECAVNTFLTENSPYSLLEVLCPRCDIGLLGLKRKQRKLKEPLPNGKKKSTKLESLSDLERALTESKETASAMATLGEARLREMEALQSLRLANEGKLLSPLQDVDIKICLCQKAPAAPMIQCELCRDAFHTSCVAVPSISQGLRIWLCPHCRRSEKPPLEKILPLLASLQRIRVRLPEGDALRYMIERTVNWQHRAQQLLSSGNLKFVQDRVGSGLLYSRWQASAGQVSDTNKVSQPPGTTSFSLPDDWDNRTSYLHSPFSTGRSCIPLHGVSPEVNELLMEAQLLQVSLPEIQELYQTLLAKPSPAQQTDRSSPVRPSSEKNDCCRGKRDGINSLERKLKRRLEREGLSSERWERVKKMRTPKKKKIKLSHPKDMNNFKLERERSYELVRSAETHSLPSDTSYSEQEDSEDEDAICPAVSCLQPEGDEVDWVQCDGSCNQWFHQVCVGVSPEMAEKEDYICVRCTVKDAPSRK

As for `Clc1ccc(N/N=C(\c2ccccc2)c2ccccn2)nc1` [JIB-04 E], the half-inhibitory concentration (IC50) was 1200 ± 10 nM in data set [1], 650 ± 50 nM in data set [2], 561 nM in data set [3] and 622 ± 50 nM in data set [4].
